The values that follow come from patent US12478617B2, “Lipidated peptide inhibitors of interleukin-23 receptor” (JANSSEN BIOTECH, INC., priority 2021, dated 2025).

Molecules are shown by their SMILES. Starred links: 1 amine or outer side, 2 acyl side, 3 side chain; linkers in the order of their positions; H or OH if unused. Positions of bridges follow the written chain, without caps; N, C: chain ends. Non-standard residues stand in square brackets, D forms with d. Residues, ends and D or L forms follow the SMILES beside them. Groups on a side chain read outwards from the residue. *: point of attachment. Trp(7-Me) = Cc1cccc2c(C[C@H](N)C(=O)O)c[nH]c12; C18 diacid = O=C(O)CCCCCCCCCCCCCCCCC(=O)*; C16 diacid = O=C(O)CCCCCCCCCCCCCCC(=O)*; γGlu = O=C(O)[C@H](CCC(=O)[*:2])N[*:1]; 2Nal = N[C@@H](Cc1ccc2ccccc2c1)C(=O)O; AEF = NCCOc1ccc(C[C@H](N)C(=O)O)cc1; PEG6 = NCCOCCOCCOCCOCCOCCOCCC(=O)O; 3Pal = N[C@@H](Cc1cccnc1)C(=O)O; Pen = CC(C)(S)[C@H](N)C(=O)O; Thp = NC1(C(=O)O)CCOCC1; AEEA = NCCOCCOCC(=O)O; Sar = CNCC(=O)O

For this assay, the target named is T1, IL-23R (Homo sapiens, UniProt Q5VWK5).
T1 construct: HEK293 cells containing IL-23R, IL-12RP31 and a firefly luciferase reporter gene driven by a STAT-inducible promoter (Promega); host or cells: HEK293
T1 sequence (Q5VWK5 24-629): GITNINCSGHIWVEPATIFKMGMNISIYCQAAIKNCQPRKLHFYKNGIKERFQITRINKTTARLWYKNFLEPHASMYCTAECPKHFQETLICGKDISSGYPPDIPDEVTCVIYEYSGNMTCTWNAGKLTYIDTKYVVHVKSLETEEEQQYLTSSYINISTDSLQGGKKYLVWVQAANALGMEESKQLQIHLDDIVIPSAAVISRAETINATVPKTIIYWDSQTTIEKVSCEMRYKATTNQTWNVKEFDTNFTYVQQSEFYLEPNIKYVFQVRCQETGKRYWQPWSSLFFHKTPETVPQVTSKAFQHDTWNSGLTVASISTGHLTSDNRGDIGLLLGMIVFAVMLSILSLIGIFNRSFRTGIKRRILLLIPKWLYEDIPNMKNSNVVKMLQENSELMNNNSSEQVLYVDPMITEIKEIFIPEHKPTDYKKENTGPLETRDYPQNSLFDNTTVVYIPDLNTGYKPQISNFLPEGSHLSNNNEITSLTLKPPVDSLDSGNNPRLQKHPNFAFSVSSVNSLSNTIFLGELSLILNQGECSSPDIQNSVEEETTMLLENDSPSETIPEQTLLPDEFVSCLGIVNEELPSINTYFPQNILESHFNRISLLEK
Nature of the assay: IL23R Reporter Assay. The assay is classed as cell-based. In outline: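 Luminescence from BioGlo, read after cells were moved to 20 °C, followed a 5 h incubation at 37 °C, 5% CO2 with DMSO-diluted test compounds.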
Background: In a reporter assay the amount or activity of a reporter protein is the signal.
What is called IC50 is the concentration at which inhibition is half-maximal. A lower IC50 goes with greater potency. Regarding `CC(=O)NCCCC[C@@H]1NC(=O)[C@H](Cc2c[nH]c3c(C)cccc23)NC(=O)[C@H]([C@@H](C)O)NC(=O)[C@H](CC(N)=O)NC(=O)[C@@H](NC(C)=O)C(C)(C)SSC(C)(C)[C@@H](C(=O)N[C@@H](Cc2ccc(OCCN)cc2)C(=O)N[C@@H](Cc2ccc3ccccc3c2)C(=O)NC2(C(=O)N[C@@H](CCCCNC(=O)CCOCCOCCOCCOCCOCCOCCNC(=O)CCOCCOCCOCCOCCOCCOCCNC(=O)CC[C@H](NC(=O)CCCCCCCCCCCCCCC(=O)O)C(=O)O)C(=O)N[C@@H](CC(N)=O)C(=O)N[C@@H](Cc3cccnc3)C(=O)N(C)CC(N)=O)CCOCC2)NC1=O` [Example 42, MeCO-Pen*-N-T-7MeW-K(Ac)-Pen*-AEF-2Nal-THP-K(PEG6PEG6gEC16OH)-N-3Pya-Sar-CONH2] (Ac-[Pen]NT[Trp(7-Me)]K(Ac)[Pen][AEF][2Nal][Thp]K([PEG6-PEG6-γGlu-C16 diacid])N[3Pal][Sar]-NH2; disulfide 1-6), the IC50 is 0.029 nM. In other words, the picomolar range. The compound `CC(=O)NCCCC[C@@H]1NC(=O)[C@H](Cc2c[nH]c3c(C)cccc23)NC(=O)[C@H]([C@@H](C)O)NC(=O)[C@H](CC(N)=O)NC(=O)[C@@H](NC(=O)[C@@H](CCCNC(=N)N)NC(C)=O)C(C)(C)SSC(C)(C)[C@@H](C(=O)N[C@@H](Cc2ccc(OCCN)cc2)C(=O)N[C@@H](Cc2ccc3ccccc3c2)C(=O)NC2(C(=O)N[C@@H](CCC(=O)O)C(=O)N[C@@H](CC(N)=O)C(=O)N[C@@H](Cc3cccnc3)C(=O)N(C)CC(=O)N[C@@H](CCCCNC(=O)COCCOCCNC(=O)COCCOCCNC(=O)CC[C@H](NC(=O)CCCCCCCCCCCCCCC(=O)O)C(=O)O)C(N)=O)CCOCC2)NC1=O` [Example 17, MeCO-r-Pen*-N-T-7MeW-K(Ac)-Pen*-AEF-2Nal-THP-E-N-3Pya-Sar-K(PEG2PEG2gEC16OH)-CONH2] (Ac-[dR][Pen]NT[Trp(7-Me)]K(Ac)[Pen][AEF][2Nal][Thp]EN[3Pal][Sar]K([AEEA-AEEA-γGlu-C16 diacid])-NH2; disulfide 2-7) displayed an IC50 of 0.036 nM. The result for `CC(=O)NCCCC[C@@H]1NC(=O)[C@H](Cc2c[nH]c3c(C)cccc23)NC(=O)[C@H]([C@@H](C)O)NC(=O)[C@H](CC(N)=O)NC(=O)[C@@H](NC(C)=O)C(C)(C)SSC(C)(C)[C@@H](C(=O)N[C@@H](Cc2ccc(OCCN)cc2)C(=O)N[C@@H](Cc2ccc3ccccc3c2)C(=O)NC2(C(=O)N[C@@H](CCCCNC(=O)COCCOCCNC(=O)COCCOCCNC(=O)CCCCCCCCCCCCCCCCC(=O)O)C(=O)N[C@@H](CC(N)=O)C(=O)N[C@@H](Cc3cccnc3)C(=O)N(C)CC(N)=O)CCOCC2)NC1=O` [Example 41, MeCO-Pen*-N-T-7MeW-K(Ac)-Pen*-AEF-2Nal-THP-K(PEG2PEG2C18OH)-N-3Pya-Sar-CONH2] (Ac-[Pen]NT[Trp(7-Me)]K(Ac)[Pen][AEF][2Nal][Thp]K([AEEA-AEEA-C18 diacid])N[3Pal][Sar]-NH2; disulfide 1-6) reads 0.078 nM; that for `CC(=O)NCCCC[C@@H]1NC(=O)[C@H](Cc2c[nH]c3c(C)cccc23)NC(=O)[C@H]([C@@H](C)O)NC(=O)[C@H](CCCCNC(=O)COCCOCCNC(=O)COCCOCCNC(=O)[C@@H]2CCCN2C(=O)[C@@H]2CCCN2C(=O)[C@@H]2CCCN2C(=O)CC[C@H](NC(=O)CCCCCCCCCCCCCCCCC(=O)O)C(=O)O)NC(=O)[C@@H](NC(=O)[C@@H](CCCNC(=N)N)NC(C)=O)C(C)(C)SSC(C)(C)[C@@H](C(=O)N[C@@H](Cc2ccc(OCCN)cc2)C(=O)N[C@@H](Cc2ccc3ccccc3c2)C(=O)NC2(C(=O)N[C@@H](CCCCNC(C)=O)C(=O)N[C@@H](CC(N)=O)C(=O)N[C@@H](Cc3cccnc3)C(=O)N(C)CC(N)=O)CCOCC2)NC1=O` [Example 99, MeCO-r-Pen*-K(PEG2PEG2PPPgEC18OH)-T-7MeW-K(Ac)-Pen*-AEF-2Nal-THP-K(Ac)-N-3Pya-Sar-CONH2] (Ac-[dR][Pen]K([AEEA-AEEA-Pro-Pro-Pro-γGlu-C18 diacid])T[Trp(7-Me)]K(Ac)[Pen][AEF][2Nal][Thp]K(Ac)N[3Pal][Sar]-NH2; disulfide 2-7), 0.096 nM; that for `CC(=O)NCCCC[C@@H]1NC(=O)[C@H](Cc2c[nH]c3c(C)cccc23)NC(=O)[C@H]([C@@H](C)O)NC(=O)[C@H](CCCCNC(=O)COCCOCCNC(=O)COCCOCCNC(=O)CC[C@H](NC(=O)CCCCCCCCCCCCCCCCC(=O)O)C(=O)O)NC(=O)[C@@H](NC(=O)[C@@H](CCCNC(=N)N)NC(C)=O)C(C)(C)SSC(C)(C)[C@@H](C(=O)N[C@@H](Cc2ccc(OCCN)cc2)C(=O)N[C@@H](Cc2ccc3ccccc3c2)C(=O)NC2(C(=O)N[C@@H](CCCCNC(C)=O)C(=O)N[C@@H](CC(N)=O)C(=O)N[C@@H](Cc3cccnc3)C(=O)N(C)CC(N)=O)CCOCC2)NC1=O` [Example 50, MeCO-r-Pen*-K(PEG2PEG2gEC18OH)-T-7MeW-K(Ac)-Pen*-AEF-2Nal-THP-K(Ac)-N-3Pya-Sar-CONH2] (Ac-[dR][Pen]K([AEEA-AEEA-γGlu-C18 diacid])T[Trp(7-Me)]K(Ac)[Pen][AEF][2Nal][Thp]K(Ac)N[3Pal][Sar]-NH2; disulfide 2-7), 0.1 nM.

With `CC(=O)NCCCC[C@@H]1NC(=O)[C@H](Cc2c[nH]c3c(C)cccc23)NC(=O)[C@H]([C@@H](C)O)NC(=O)[C@H](CC(N)=O)NC(=O)[C@@H](NC(=O)[C@@H](CCCNC(=N)N)NC(C)=O)C(C)(C)SSC(C)(C)[C@@H](C(=O)N[C@@H](Cc2ccc(OCCN)cc2)C(=O)N[C@@H](Cc2ccc3ccccc3c2)C(=O)NC2(C(=O)N[C@@H](CCCCNC(=O)COCCOCCNC(=O)COCCOCCNC(=O)[C@H]3CCCN3C(=O)CCCCCCCCCCCCCCCCC(=O)O)C(=O)N[C@@H](CC(N)=O)C(=O)N[C@@H](Cc3cccnc3)C(=O)N(C)CC(N)=O)CCOCC2)NC1=O` [Example 57, MeCO-r-Pen*-N-T-7MeW-K(Ac)-Pen*-AEF-2Nal-THP-K(PEG2PEG2pC18OH)-N-3Pya-Sar-CONH2] (Ac-[dR][Pen]NT[Trp(7-Me)]K(Ac)[Pen][AEF][2Nal][Thp]K([AEEA-AEEA-dP-C18 diacid])N[3Pal][Sar]-NH2; disulfide 2-7), the IC50 amounted to 0.3 nM.

Consider `CC(=O)NCCCC[C@@H]1NC(=O)[C@H](Cc2c[nH]c3c(C)cccc23)NC(=O)[C@H]([C@@H](C)O)NC(=O)[C@H](CC(N)=O)NC(=O)[C@@H](NC(=O)[C@@H](CCCNC(=N)N)NC(C)=O)C(C)(C)SSC(C)(C)[C@@H](C(=O)N[C@@H](Cc2ccc(OCCN)cc2)C(=O)N[C@@H](Cc2ccc3ccccc3c2)C(=O)NC2(C(=O)N[C@@H](CCCCNC(=O)COCCOCCNC(=O)COCCOCCNC(=O)[C@@H]3CCCN3C(=O)[C@@H]3CCCN3C(=O)[C@@H]3CCCN3C(=O)CCCCCCCCCCCCCCCCC(=O)O)C(=O)N[C@@H](CC(N)=O)C(=O)N[C@@H](Cc3cccnc3)C(=O)N(C)CC(N)=O)CCOCC2)NC1=O` [Example 65, MeCO-r-Pen*-N-T-7MeW-K(Ac)-Pen*-AEF-2Nal-THP-K(PEG2PEG2PPPC18OH)-N-3Pya-Sar-CONH2] (Ac-[dR][Pen]NT[Trp(7-Me)]K(Ac)[Pen][AEF][2Nal][Thp]K([AEEA-AEEA-Pro-Pro-Pro-C18 diacid])N[3Pal][Sar]-NH2; disulfide 2-7), for which half-maximal inhibition (IC50) required 0.19 nM.
